Test results: US20100172875A1, “OIL-IN-WATER EMULSION AND ITS USE FOR THE DELAYED RELEASE OF ACTIVE ELEMENTS” (NESTEC S.A., priority 2007, published 2010)
Read-outs that look alike come from different tables or passages of the source.

Experiments:
[1] = active element release into the headspace of emulsions under in vitro dynamic conditions, monitored by PTR-MS; format: physicochemical; settings: for significance of Tmax difference: emulsion of this invention 5 wt % (MG:MCT 1:20) vs simple reference emulsion 5 wt % MCT, Fisher LSD, α<0.05
Excerpt: The Tmax of a given active element released from a given emulsion is a parameter determined from the curve representing the variation over time of the given active element concentration in the water phase or in the headspace of the emulsion or of product containing the emulsion under dynamic condition (denoted as release curve) as time at which the measured concentration of the given active element reaches its maximum (FIG. 1). The analytical methods that can be applied for measurement of release curve and corresponding Tmax in dynamic condition include, but are not restricted to, measuring in headspace under a continuous purging flow of nitrogen and analyzing the active element in the purged headspace gas through its specific mass-to-charge using Proton Transfer Reaction-Mass Spectrometry (PTR-MS) (Pollien, P., Lindinger, C., Yeretzian, C., and Blank, I., “Proton Transfer Reaction Mass Spectrometry, a Tool for On-Line Monitoring of Acrylamide Formation in the Headspace of Maillard Reaction Systems and Processed Food,” Analytical Chemistry, Vol. 75, No. 20, 2003, pp. 5488-5494).
A double-jacketted glass cell was held at 36° C. with a circulating water bath. This cell was put in the oven which was held at 60° C. in order to avoid cold points and water condensation. The headspace cell was continuously purged at 200 sccm (standard cubic centimeters per minute) with pure nitrogen. Prior to introduction into the PTR-MS, the headspace was diluted with 1960 sccm of nitrogen to avoid water saturation of the instrument.
When all the set-up had been thermo-stabilized, 100 ml of sample, after being stabilized at 36° C. in a water bath, was poured inside the cell, which was quickly reconnected and put under agitation at 135 rpm. The release of active elements was monitored on-line during 10 minutes for each sample.
Nine specific masses were selected based on the scan data, i.e., m/z 45 for acetaldehyde, m/z 83 for cis-3-Hexen-1-ol, m/z 87 for diacetyl, m/z 99 for 2E-hexenal, m/z 107 for benzaldehyde, m/z 111 for octanal, m/z 131 for ethyl isovalerate, m/z 137 linalool, m/z 167 for 3-methoxy-2-isobutylpyrazine.
The PTR-MS signals (ion count) enabled us to calculate the active element concentration in the headspace of the emulsion so that to build the release curve for the active element. Cmax of a given active element released from a given emulsion was determined from the release curve as the maximum concentration of the active element released in the headspace of the emulsion, expressed in ppmV (parts per million in volume).
Tmax of a given active element released from a given emulsion was determined from the release curve as the time to reach maximum concentration of the active element released in the headspace of the emulsion, expressed in seconds. The nine active elements are listed in X axis and sorted along their logP, from the lowest logP value (hydrophilic compounds) to the highest logP (lipophilic compounds). Black, grey and hatched bars represent respectively Tmax the active elements released in the headspace of an oil-in-water emulsion containing with 10 wt % Medium Chain Triglycerides (MCT) (herein labelled as simple emulsion with 10 wt % MCT), of an oil-in-water emulsion containing 5 wt % MCT (herein labelled as simple reference emulsion with 5 wt % MCT), and an oil-in-water emulsion containing 5 wt % of an 1:20 mixture of a unsaturated monoglyceride (DIMODAN MO90, Danisco, Denmark) and MCT (herein Emulsion of the present invention with 5 wt % (MG:MCT 1:20)). All Tmax values were obtained on 6 replicated measurements. Tmax of 2E-Hexenal for the simple emulsion with 10 wt % MCT is not determined because its concentration in the headspace was continuously and gradually increasing over the 10 minutes of measurement. […]

[2] = octanol/water partition coefficient (logP) of the active elements; format: physicochemical
Excerpt: The logarithm of the octanol/water partition coefficient (logP) is used extensively to describe the lipophilic or hydrophobic properties of an active element. The logP property value is taken from the ratio of the respective concentrations of the active element in the n-octanol and water partitions of a two-phase system at equilibrium. Among other methods, the classical and most reliable method of logP determination is the shake-flask method, which consists of dissolving some of the active element in question in a volume of n-octanol and water, then measuring the concentration of the solute in each solvent (Organization for Economic Cooperation and Development, Guidelines for The Testing of Chemicals, OECD 107, Partition Coefficient (n-octanol/water)-Shake Flask Method, Adopted 27 Jul. 1995-, OECD, Paris, France).
Table 1 lists active elements used in the study, providing chemical name (first column), the Chemical Abstract Service number (CAS#, second column), supplier and supplier product code (third and fourth column), the logarithm of the octanol/water partition coefficient (logP) and the concentration used in final formulations in parts per million of volume (ppmV). These nine active elements are volatile aroma compounds.

[3] = n-octanol/water, logarithm of the octanol/water partition coefficient, read-out: logP

SMILES | significance of Tmax difference [1] | logP [2] | logP [2, 3] | Cmax released in headspace, comparison ([1]; emulsion of the present invention 5 wt % (MG:MCT 1:20) vs simple emulsion 10 wt % MCT) | logP ([2]; logarithm of the octanol/water partition coefficient)
CC=O [Acetaldehyde] | non-significant difference |  | -0.156 |  | 
CCC/C=C/C=O [Example 2E-hexenal, 2E-hexenal] |  |  |  |  | 1.576
COc1nccnc1CC(C)C [3-methoxy-2-isobutylpyrazine] | significant increase |  | 2.62 |  | 
O=Cc1ccccc1 [Benzaldehyde] | significant increase |  |  |  | 

Further lines, with some results ahead:

significance of Tmax difference [1] | logP [2] | logP [2, 3] | Cmax released in headspace, comparison ([1]; emulsion of the present invention 5 wt % (MG:MCT 1:20) vs simple emulsion 10 wt % MCT) | SMILES | logP ([2]; logarithm of the octanol/water partition coefficient)
non-significant difference | −1.332 |  |  | CC(=O)C(C)=O [Diacetyl] | 
significant increase |  | 2.12 |  | CCOC(=O)CC(C)C [Ethyl isovalerate] | 
significant increase |  | 3.28 | significantly higher | C=CC(C)(O)CCC=C(C)C (centres unmarked) [Linalool] | 
significant increase |  | 3.03 |  | CCCCCCCC=O [Octanal] | 
significant increase |  | […] |  | CC/C=C\CCO [cis-3-Hexen-1-ol] | 
